These results are taken from US20060286679A1, “Immunochromatographic method” (Mitsubishi Kagaku latron, Inc., priority 2003, published 2006).

One data set concerns mite-specific IgE. Put plainly: Enzyme immunochromatographic measurement of specific IgE in hemolyzed whole-blood-derived sample. Further details: species or system human.
The next data set deals with Human whole blood. Put plainly: Observation on hemolysis after mixing whole blood with equal volume of detergent liquid. Further: key: Hml: Hemolyzed; Not hemolyzed; FCD: Failure in chromatographic development. Format: cell-based. The method, then: Deionized water, physiological saline (150 mmol/L sodium chloride liquid), and a 10 mmol/L phosphate buffer (pH 7.5, 150 mmol/L sodium chloride) were prepared.
Human whole blood (100 μL) collected using a tube containing heparin anticoagulant was mixed with an equal volume of each detergent liquid (100 μL) to prepare each sample. After 10 minutes from the mixing, hemolysis in each sample was observed visually. The “hemolysis” was judged on the basis of a transparent state caused by a solubilization of erythrocytic membrane and elution of red pigments such as hemoglobin from erythrocytes.
Total concentrations of five detergents in the four mixed liquids were 0.2, 1.0, 5.0, and 20%, respectively.

Where [1] appears, read: Example 1, detergent liquid 1% (final half), visual, 10 min after mixing.
Setting [2] is: Example 1, detergent liquid 5% (final half), visual, 10 min after mixing.
[3] abbreviates: Example 1, detergent liquid 20% (final half), visual, 10 min after mixing.
Where [4] appears, read: Example 2, detergent liquid 1% (final half).
Where [5] appears, read: Example 2, detergent liquid 5% (final half).
Setting [6] is: Example 2, detergent liquid 20% (final half).

Experimental for mite-specific IgE: A nitrocellulose membrane (HF180; pore size=5 to 8 μm; Millipore) was cut into a rectangular piece (5 mm×25 mm). An aqueous solution of extracted mite allergen proteins (1 mg/mL) was applied linearly with a width of 1 mm at the position of 15 mm from an end (upstream) of the membrane. In this connection, the aqueous solution was previously prepared by diluting a Dermatophagoides pteronyssinus extract (Glia) with a 5 mmol/L borate buffer (pH 8.5) and dialyzing the diluted solution.
A plastic adhesive sheet (BioDot) was cut into a rectangular piece (5 mm×60 mm). […] In this connection, adjacent pieces attached on the adhesive sheet were overlapped with each other at a width of approximately 1 mm.
Each aliquot (50 μL) of whole-blood-derived samples prepared by hemolysis and solubilization was dispensed into each well of a microplate. […]
As the above samples, sample 1 (mite-specific IgE=0 IU/mL), sample 2 (mite-specific IgE=3 IU/mL), and sample 3 (mite-specific IgE=10 IU/mL) were used. The amounts of mite-specific IgE were measured by a conventional quantitative analysis (AlaSTAT specific IgE antibody measuring kit; obtained from Iatron and manufactured by DPC, US) and shown by IU/mL, an international standard unit.

As to `CCCCCCCCCCCCCCCCCC[N+](C)(C)CC(=O)[O-]` [Amphitol 86B, stearyl betaine], the “solubilization of whole blood, immunochromatographic staining, and immunochromatographic development” value in the data set with mite-specific IgE is given as “cannot be performed”. In addition, the Hemolysis entry in the data set with Human whole blood (setting [1]), in the data set with Human whole blood (setting [2]), in the data set on Human whole blood (setting [3]), with Human whole blood (setting [4]), in the data set on Human whole blood (setting [5]) and in the data set with Human whole blood (setting [6]) was “Hml” throughout.
`C[C@H](CCC(=O)NCCC[N+](C)(C)CCCS(=O)(=O)[O-])[C@H]1CC[C@H]2[C@@H]3[C@H](O)C[C@@H]4C[C@H](O)CC[C@]4(C)[C@H]3C[C@H](O)[C@]12C` [CHAPS, 3-[(3-cholamido-propyl)dimethyl-ammonio]propanesulfonic acid]: the Hemolysis result in the data set on Human whole blood (setting [1]), in the data set on Human whole blood (setting [2]), with Human whole blood (setting [3]), with Human whole blood (setting [4]), in the data set with Human whole blood (setting [5]) and with Human whole blood (setting [6]) was “Hml” each time.
Regarding `CCCCCCCCCCCCOS(=O)(=O)[O-].[Na+]` [sodium dodecyl sulfate], the Hemolysis result was “Hml” in the data set with Human whole blood (Example 1, detergent liquid 0.2% (final half), visual, 10 min after mixing); “Hml” with Human whole blood (setting [1]); “Hml” in the data set on Human whole blood (setting [2]); “Hml” with Human whole blood (setting [3]); “Hml” in the data set on Human whole blood (Example 2, detergent liquid 0.2% (final half)); “Hml” with Human whole blood (setting [4]). Besides, the Hemolysis entry with Human whole blood (setting [5]) and with Human whole blood (setting [6]) was “Hml” throughout.
Regarding “polyethylene glycol mono-para-iso-octylphenyl ester [Triton X-100]”, in the data set with mite-specific IgE, the “solubilization of whole blood, immunochromatographic staining, and immunochromatographic development” value is recorded as “cannot be performed”. Also, the Hemolysis result in the data set with Human whole blood (setting [1]), in the data set with Human whole blood (setting [2]), with Human whole blood (setting [3]), in the data set on Human whole blood (setting [4]), with Human whole blood (setting [5]) and with Human whole blood (setting [6]) was “Hml” in each case.
Turning to “polyoxyethylene laurylether [Emulgen 108]”, the Hemolysis result in the data set on Human whole blood (setting [1]), with Human whole blood (setting [2]), in the data set on Human whole blood (setting [3]), in the data set on Human whole blood (setting [4]), with Human whole blood (setting [5]) and in the data set with Human whole blood (setting [6]) was “Hml” in each case.
For the compound polyoxyethylene monolaurate [Tween 20], the Hemolysis result in the data set with Human whole blood (setting [3]) and with Human whole blood (setting [6]) was “Hml” in each case.
